The record followed here is paper PMC5591292, “Identification of Purple Acid Phosphatases in Chickpea and Potential Roles of CaPAP7 in Seed Phytate Accumulation” (Scientific Reports, 2017).

For this experiment, the target named is T1, CaPAP7 (Cicer arietinum, UniProt A0A1S2YHG0).
T1 construct: gene PAP7; ORF PCR product of 1008 bp (about 335 residues) in pET28a, E. coli BL21(DE3) pLysS, Ni-NTA purified, ~38 kDa on SDS-PAGE; signal peptide predicted but protein cytoplasmic
T1 sequence (A0A1S2YHG0 1-335): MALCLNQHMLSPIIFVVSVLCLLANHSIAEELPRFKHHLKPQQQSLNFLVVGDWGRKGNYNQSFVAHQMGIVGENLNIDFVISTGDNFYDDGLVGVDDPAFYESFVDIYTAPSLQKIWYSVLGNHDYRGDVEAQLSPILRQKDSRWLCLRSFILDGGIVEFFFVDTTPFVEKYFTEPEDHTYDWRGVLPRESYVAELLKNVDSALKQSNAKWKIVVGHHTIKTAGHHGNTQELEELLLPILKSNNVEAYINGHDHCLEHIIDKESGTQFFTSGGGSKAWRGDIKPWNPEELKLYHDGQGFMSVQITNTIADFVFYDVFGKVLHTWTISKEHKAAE
Briefly: phosphatase activity assay, […] min. Particulars: 10 mM substrate, 37 °C; maximum activity among substrates tested. In kind it is biochemical.

`O=P(O)(O)O[C@H]1[C@H](OP(=O)(O)O)[C@@H](OP(=O)(O)O)[C@H](OP(=O)(O)O)[C@@H](OP(=O)(O)O)[C@H]1OP(=O)(O)O` [phytic acid]: the “phosphatase activity assay, 30 min” value was “it exhibited maximum catalytic activity for phytic acid”.
